This note sets out measurements from patent US20240383852A1, “ANTI-VIRAL COMPOUNDS” (INFEX Therapeutics Limited, priority 2021, published 2024).

Data set [1] addresses T1, SARS-CoV-2 PLpro (Severe acute respiratory syndrome coronavirus 2, UniProt P0DTD1).
T1 construct: containing 60 nM papain-like protease
As to the kind of experiment: biochemical.

Data set [2] has as its system human Hep G2 cells (ATCC HB-8065). As to the kind of experiment: Cytotoxicity in Hep G2 cells (CellTiter-Glo). It counts as cell-based.
Where [3] appears, read: 60 nM papain-like protease, 50 μM Z-RLRGG-AMC, pH 7.5, 37° C., read-out: SARS-CoV-2 PLpro IC50.
[4] abbreviates: Hep G2 cells, 100 μM test article, 24-hour exposure.

Where a name gives a salt, the structure may show the parent alone. Read-outs that look alike come from different tables or passages of the source. Bounds are passed on as bounds.

For `Cc1ccc(N2C[C@H]3C[C@@H]2CN3C)cc1C(=O)N[C@H](C)c1cccc2c1OCO2` [Example 122, N-[(1R)-1-(1,3-benzodioxol-4-yl)ethyl]-2-methyl-5-[(1R,4R)-5-methyl-2,5-diazabicyclo[2.2.1]heptan-2-yl]benzamide], in data set [1] (setting [3]), the IC50 is less than 5 µM. For the same compound, the “% Cell Viability” value in data set [2] (setting [4]) stood at 95.4%.
In the case of `Cc1ccc(N2CCN3CCCC3C2)cc1C(=O)N[C@H](C)c1cccc2ccccc12` (stereo partly drawn) [Example 125, 5-(3,4,6,7,8,8a-Hexahydro-1H-pyrrolo[1,2-a]pyrazin-2-yl)-2-methyl-N-[(1R)-1-(1-naphthyl)ethyl]benzamide hydrochloride salt], the IC50 in data set [1] (setting [3]) was less than 2 µM. In addition, the “% Cell Viability” value in data set [2] (setting [4]) is 55.8%.
With `Cc1ccc(-c2ccnc(N3CCNCC3)c2)cc1C(=O)N[C@H](C)c1cccc2ccccc12` [Example 140, 2-Methyl-N-[(1R)-1-(1-naphthyl)ethyl]-5-(2-piperazin-1-yl-4-pyridyl)benzamide], the IC50 in data set [1] (setting [3]) was less than 10 µM. In addition, the “% Cell Viability” value in data set [2] (setting [4]) amounted to 0.8%.
As for `Cc1ccc(N2CCN(C)CC2)cc1C(=O)N[C@H](C)c1ccc(-c2ccc(CO)cc2)cc1` [Example 54, N-[(1R)-1-[4-[4-(Hydroxymethyl)phenyl]phenyl]ethyl]-2-methyl-5-(4-methylpiperazin-1-yl)benzamide], the half-inhibitory concentration (IC50) in data set [1] (setting [3]) is less than 10 µM. Moreover, in data set [2] (setting [4]), the “% Cell Viability” value is 76.0%.
The matching figures for `Cc1ccc(N2CCN(C)CC2)cc1C(=O)N[C@H](C)c1cccc(-c2ccsc2)c1` [Example 50, 2-Methyl-5-(4-methylpiperazin-1-yl)-N-[(1R)-1-[3-(3-thienyl)phenyl]ethyl]benzamide]: less than 2 µM and 2.3%.
`COc1cc(OC)c([C@@H](C)NC(=O)c2cc(N3CCN(C)CC3)ccc2C)cc1Br` [Example 202, N-[(1R)-1-(5-Bromo-2,4-dimethoxy-phenyl)ethyl]-2-methyl-5-(4-methylpiperazin-1-yl)benzamide]: the IC50 in data set [1] (setting [3]) was less than 5 µM. For the same compound, in data set [2] (setting [4]), the “% Cell Viability” value came out at 72.5%.
Take `C[C@@H](NC(=O)c1cccc(C2CCNCC2)c1)c1cccc2ccccc12` [Example 6, N-[(1R)-1-(1-Naphthyl)ethyl]-3-(4-piperidyl)benzamide Hydrochloride Salt]: in data set [1] (setting [3]), the concentration for half-maximal inhibition (IC50) is less than 20 µM. For the same compound, the “% Cell Viability” value in data set [2] (setting [4]) was 0.6%.
Regarding `Cc1ccc(N2C[C@H]3C[C@@H]2CN3C)cc1C(=O)N[C@H](C)c1cccc(-c2cccc(C(C)(C)O)c2)c1` [Example 57, N-[(1R)-1-[3-[3-(1-Hydroxy-1-methyl-ethyl)phenyl]phenyl]ethyl]-2-methyl-5-[(1R,4R)-5-methyl-2,5-diazabicyclo[2.2.1]heptan-2-yl]benzamide], the IC50 in data set [1] (setting [3]) is less than 2 µM. Further, in data set [2] (setting [4]), the “% Cell Viability” value is 0.9%.
The matching figures for `COc1ccc([C@@H](C)NC(=O)c2cc(N3CCN(C)CC3)ccc2C)cc1-c1ccccc1` [Example 203, N-[(1R)-1-(4-Methoxy-3-phenyl-phenyl)ethyl]-2-methyl-5-(4-methylpiperazin-1-yl)benzamide]: less than 2 µM and 0.9%.
Take `COc1ccc(Br)cc1[C@@H](C)NC(=O)c1cc(N2CCN(C)CC2)ccc1C` [Example 195, N-[(1R)-1-(5-Bromo-2-methoxy-phenyl)ethyl]-2-methyl-5-(4-methylpiperazin-1-yl)benzamide]: the concentration for half-maximal inhibition (IC50) in data set [1] (setting [3]) was less than 2 µM. Moreover, the “% Cell Viability” value in data set [2] (setting [4]) worked out at 41.5%.
As for `Cc1ccc(N2CCN(C)CC2)cc1C(=O)N[C@H](C)c1cccc(C(=O)N(C)C)c1` [Example 311, N-[(1R)-1-[3-(Dimethylcarbamoyl)phenyl]ethyl]-2-methyl-5-(4-methylpiperazin-1-yl)benzamide], in data set [1] (setting [3]), the IC50 is less than 20 µM. Also, in data set [2] (setting [4]), the “% Cell Viability” value came to 130.7%.
Turning to `COc1ccc([C@@H](C)NC(=O)c2cc(N3C[C@H]4C[C@@H]3CN4C)ccc2C)cc1-c1csc(C(=O)NC2CC2)c1` [Example 287, N-Cyclopropyl-4-[2-methoxy-5-[(1R)-1-[[2-methyl-5-[(1R,4R)-5-methyl-2,5-diazabicyclo[2.2.1]heptan-2-yl]benzoyl]amino]ethyl]phenyl]thiophene-2-carboxamide], the 50% inhibitory concentration (IC50) in data set [1] (setting [3]) was less than 2 µM. Also, the “% Cell Viability” value in data set [2] (setting [4]) is 43.4%.
On the same counts, the results for `Cc1ccc(N2CCN(C)CC2)c(C)c1C(=O)N[C@H](C)c1cccc2ccccc12` [Example 124, 2,6-Dimethyl-3-(4-methylpiperazin-1-yl)-N-[(1R)-1-(1-naphthyl)ethyl]benzamide] are less than 2 µM and 37.4%.
As for `Cc1ccc([C@@H](C)NC(=O)c2cc(N3CCN(C)CC3)ccc2C)cc1Br` [Example 196, N-[(1R)-1-(3-Bromo-4-methyl-phenyl)ethyl]-2-methyl-5-(4-methylpiperazin-1-yl)benzamide], the 50% inhibitory concentration (IC50) in data set [1] (setting [3]) was less than 2 µM. Moreover, the “% Cell Viability” value in data set [2] (setting [4]) was 4.7%.
As to `Cc1ccc(C2=CCNCC2)cc1C(=O)N[C@H](C)c1cccc2ccccc12` [Example 154, 2-Methyl-N-[(1R)-1-(1-naphthyl)ethyl]-5-(1,2,3,6-tetrahydropyridin-4-yl)benzamide], in data set [1], the IC50 was less than 2 µM. Moreover, the “% Cell Viability” value in data set [2] (human, 24 h, 100 μM) worked out at 2.1%.
For `Cc1ccc(N2CCN(C)CC2)cc1C(=O)N[C@H](C)c1cccc(N2CCNCC2)c1` [Example 105, 2-Methyl-5-(4-methylpiperazin-1-yl)-N-[(1R)-1-(3-piperazin-1-ylphenyl)ethyl]benzamide], the IC50 in data set [1] (setting [3]) is less than 5 µM. Also, in data set [2] (setting [4]), the “% Cell Viability” value is on record as 113.3%.
As to `Cc1ccc(N2CCN(C)CC2)cc1C(=O)N[C@H](C)c1cccc(-c2cnn(C)c2)c1` [Example 53, 2-Methyl-5-(4-methylpiperazin-1-yl)-N-[(1R)-1-[3-(1-methylpyrazol-4-yl)phenyl]ethyl]benzamide], the half-maximal inhibitory concentration (IC50) in data set [1] (setting [3]) is less than 2 µM. In data set [2] (setting [4]), the “% Cell Viability” value stood at 82.4%.
On the same counts, the results for `COc1ccc([C@@H](C)NC(=O)c2cc(N3C[C@@H]4C[C@H]3CN4C)ccc2C)cc1OC` [Example 12, N-[(1R)-1-(3,4-Dimethoxyphenyl)ethyl]-2-methyl-5-[(1S,4S)-5-methyl-2,5-diazabicyclo[2.2.1]heptan-2-yl]benzamide] are less than 5 µM and 91.1%.
On to `COc1ccc([C@@H](C)NC(=O)c2cc(N3CCN(C)CC3)ccc2C)cc1-c1ccncc1` [Example 211, N-[(1R)-1-[4-Methoxy-3-(4-pyridyl)phenyl]ethyl]-2-methyl-5-(4-methylpiperazin-1-yl)benzamide], for which the half-maximal inhibitory concentration (IC50) in data set [1] (setting [3]) is less than 2 µM. Moreover, the “% Cell Viability” value in data set [2] (setting [4]) was 86.0%.
On to `COc1cc(OC)c([C@@H](C)NC(=O)c2cc(N3CCN(C)CC3)ccc2C)cc1-c1ccccc1` [Example 216, N-[(1R)-1-(2,4-Dimethoxy-5-phenyl-phenyl)ethyl]-2-methyl-5-(4-methylpiperazin-1-yl)benzamide], for which the half-inhibitory concentration (IC50) in data set [1] (setting [3]) is less than 2 µM. For the same compound, the “% Cell Viability” value in data set [2] (setting [4]) amounted to 0.6%.
Take `COc1ccc([C@@H](C)NC(=O)c2cc(N3CCN(C)CC3)ccc2C)cc1-c1ccsc1` [Example 206, N-[(1R)-1-[4-Methoxy-3-(3-thienyl)phenyl]ethyl]-2-methyl-5-(4-methylpiperazin-1-yl)benzamide]: the 50% inhibitory concentration (IC50) in data set [1] (setting [3]) is less than 2 µM. Moreover, the “% Cell Viability” value in data set [2] (setting [4]) turned out to be 0.8%.
`COCCNC(=O)c1cccc(-c2cccc([C@@H](C)NC(=O)c3cc(N4CCN(C)CC4)ccc3C)c2)c1` [Example 87, N-[(1R)-1-[3-[3-(2-Methoxyethylcarbamoyl)phenyl]phenyl]ethyl]-2-methyl-5-(4-methylpiperazin-1-yl)benzamide]: the IC50 in data set [1] (setting [3]) was less than 2 µM. In data set [2] (setting [4]), the “% Cell Viability” value is recorded as 74.6%.
On the same counts, the results for `Cc1ccc(N2CCN(C)CC2)cc1C(=O)N[C@H](C)c1cccc(-c2cccc(CO)c2)c1` [Example 42, N-[(1R)-1-[3-[3-(Hydroxymethyl)phenyl]phenyl]ethyl]-2-methyl-5-(4-methylpiperazin-1-yl)benzamide] are less than 2 µM and 64.1%.
Regarding `Cc1ccc(N2CCN(C)CC2)cc1C(=O)N[C@H](C)c1cccc(-c2ccccc2CO)c1` [Example 80, N-[(1R)-1-[3-[2-(Hydroxymethyl)phenyl]phenyl]ethyl]-2-methyl-5-(4-methylpiperazin-1-yl)benzamide], in data set [1] (setting [3]), the IC50 was less than 2 µM. Also, the “% Cell Viability” value in data set [2] (setting [4]) came out at 79.5%.
For `Cc1ccc(N2CCN(C)CC2)cc1C(=O)N[C@H](C)c1cccc(-c2ccc(CNC3CCCC3)s2)c1` [Example 78, N-[(1R)-1-[3-[5-[(Cyclopentylamino)methyl]-2-thienyl]phenyl]ethyl]-2-methyl-5-(4-methylpiperazin-1-yl)benzamide Dihydrochloride Salt], the IC50 in data set [1] (setting [3]) was less than 2 µM. For the same compound, in data set [2] (setting [4]), the “% Cell Viability” value stood at 1.3%.
The matching figures for `COc1ccc([C@@H](C)NC(=O)c2cc(N3CC4(CCNCC4)C3)ccc2C)cc1-c1cnn(C)c1` [Example 258, 5-(2,7-Diazaspiro[3.5]nonan-2-yl)-N-[(1R)-1-[4-methoxy-3-(1-methylpyrazol-4-yl)phenyl]ethyl]-2-methyl-benzamide]: less than 2 µM and 81.8%.
Regarding `COc1cc(Br)cc([C@@H](C)NC(=O)c2cc(N3CC4CN(C)CC4C3)ccc2C)c1` (stereo partly drawn) [Example 199, N-[(1R)-1-(3-Bromo-5-methoxy-phenyl)ethyl]-2-methyl-5-(2-methyl-1,3,3a,4,6,6a-hexahydropyrrolo[3,4-c]pyrrol-5-yl)benzamide], the half-maximal inhibitory concentration (IC50) in data set [1] (setting [3]) was less than 2 µM. Besides, in data set [2] (setting [4]), the “% Cell Viability” value came to 0.7%.
Regarding `Cc1ccc(N2CCN(C)CC2)cc1C(=O)N[C@H](C)c1cncc(-c2cn(C)nc2C)c1` [Example 225, N-[(1R)-1-[5-(1,3-Dimethylpyrazol-4-yl)-3-pyridyl]ethyl]-2-methyl-5-(4-methylpiperazin-1-yl)benzamide], the IC50 in data set [1] (setting [3]) is less than 10 µM. Besides, in data set [2] (setting [4]), the “% Cell Viability” value was found to be 95.8%.
